Source: patent US12642270B2, “Substituted thiophene carboxamides, thiophene carboxylic acids and derivatives thereof” (Bayer Aktiengesellschaft, priority 2019, dated 2026)
One block for each compound: values may come before it.

Assay: Log P by HPLC on reversed phase columns (EEC directive 79/831 Annex V.A8)
Type: physicochemical
In short: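 Reversed-phase HPLC per EEC 79/831 Annex V.A8, LC-UV with 10→95% acetonitrile linear gradient; eluent [a] 0.1% formic acid (acidic), [b] 0.001 M ammonium acetate (neutral), [c] 0.1% phosphoric acid (acidic). Calibrated with C3–C16 straight-chain alkan-2-ones, linear interpolation of retention times; multiple values joined by "+".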

[1] = method [a], compounds of formula (I), Table 1.1
[2] = method [a]: LC-UV, acidic range, 0.1% formic acid in water and acetonitrile
[3] = LogP method [a], compounds of formula (I), Table 1.1
[4] = method marker [a] given with each value, Table 1.1, compounds of formula (I)

Structure (SMILES): CCNC(=O)SC[C@H](NC(=O)c1sc(Br)c(Br)c1F)C(=O)OC [1.0543]
LogP (method [a]): 3.10^[a]

Structure (SMILES): COC(=O)c1sc(Cl)c(C#N)c1Br [II.095]
LogP [2]: 2.92^[a]

Structure (SMILES): O=C(O)c1sc(F)c(Br)c1Br [II.094]
LogP [2]: 2.26^[a]

Structure (SMILES): COC(=O)C(Cc1ccccc1)NC(=O)c1sc(Br)c(Br)c1F (stereo not drawn) [1.0472]
LogP [3]: 4.06^[a]

Structure (SMILES): CCSC(=O)C(NC(=O)c1sc(Br)c(Br)c1F)C(C)C (racemic) [1.0014]
LogP [1]: 4.87^[a]

Structure (SMILES): COC(=O)CNC(=O)c1sc(I)c(Cl)c1Cl [1.0826]
LogP (method [a]): 2.82^[a]

Structure (SMILES): O=C(NC1CCOC1=O)c1cc(Br)c(Cl)s1 (stereo not drawn) [I.0224]
LogP [2]: 2.14^[a]

Structure (SMILES): COC(=O)C(NC(=O)c1sc(Br)c(C#N)c1Br)C1CC1 (stereo not drawn) [1.0409]
LogP [3]: 3.02^[a]

Structure (SMILES): CCOC(=O)C(Cc1ccccc1)NC(=O)c1cc(Br)c(Cl)s1 (racemic) [1.0029]
LogP [1]: 4.06^[a]

Structure (SMILES): COC(=O)C1(NC(=S)c2cc(Br)c(C#N)s2)CC1 [1.0336]
LogP (method marked [a]): 3.03^[a]

Structure (SMILES): CCOC(=O)C(C(C)C)N(C)C(=O)c1sc(Br)c(Br)c1F (stereo not drawn) [1.0171]
LogP (method [a]): 4.39^[a]

Structure (SMILES): O=C(NC1CCOC1=O)c1sc(Br)c(Br)c1F (stereo not drawn) [I.0958]
LogP (method [a]: LC-UV, acidic range, 0.1% formic acid in water and acetonitrile, listed as 1.0958): 2.28^[a]

Structure (SMILES): N#Cc1sc(C(=O)NCC(N)=O)c(Cl)c1Cl [1.0796]
LogP (method [a]): 1.48^[a]

Structure (SMILES): O=C(NC(Cc1c[nH]c2ccccc12)C(=O)O)c1sc(Br)c(Br)c1F (stereo not drawn) [1.0231]
LogP (method [a]): 3.05^[a]

Structure (SMILES): N#CCNC(=O)c1sc(Br)c(Cl)c1F [1.0421]
LogP [3]: 2.33^[a]

Structure (SMILES): COC(=O)C(NC(=O)c1sc(C(F)F)c(Br)c1Br)C1CC1 (stereo not drawn) [1.0515]
LogP [3]: 3.46^[a]

Structure (SMILES): O=C(O)c1cc(Br)c(Cl)s1 [II.043]
LogP [2]: 2.28^[a]

Structure (SMILES): O=C(O)c1cc(Cl)c(F)s1 [II.064]
LogP [2]: 2.16^[a]

Structure (SMILES): O=C(O)CNC(=O)c1cc(Br)c(Cl)s1 [1.0248]
LogP (method [a]): 1.81^[a]

Structure (SMILES): O=C(NC(C(=O)OC1CCC1)C1CC1)c1sc(Br)c(Br)c1Cl (stereo not drawn) [1.0885]
LogP (method [a]): 5.08^[a]

Structure (SMILES): CCOC(=O)CNC(=O)c1cc(Cl)c(C#N)s1 [1.0386]
LogP (method marked [a]): 2.10^[a]

Structure (SMILES): CCOC(=O)C(Cc1ccccc1)NC(=O)c1cc(Br)c(C(F)(F)F)s1 (stereo not drawn) [1.0721]
LogP (method marked [a]): 4.36^[a]

Structure (SMILES): COC(=O)C(NC(=O)c1sc(Br)c(Br)c1C(F)(F)F)C1CC1 (stereo not drawn) [1.0371]
LogP (method marked [a]): 3.37^[a]

Structure (SMILES): CCOC(=O)CC[C@H](NC(=O)c1sc(Br)c(Br)c1Cl)C(=O)OCC [1.0532]
LogP (method [a]): 4.23^[a]

Structure (SMILES): CCOC(=O)CCNC(=O)c1cc(F)c(Br)s1 [1.0456]
LogP [3]: 2.47^[a]

Structure (SMILES): COC(=O)C(CCSC)NC(=O)c1sc(C#N)c(Cl)c1Cl (stereo not drawn) [1.0791]
LogP (method [a]): 3.26^[a]

Structure (SMILES): CCOC(=O)C(NC(=O)c1sc(Br)c(Br)c1F)c1ccccc1 (stereo not drawn) [1.0175]
LogP (method [a]): 4.47^[a]

Structure (SMILES): CCOC(=O)C(Cc1ccccc1)NC(=O)c1sc(Br)c(I)c1C (stereo not drawn) [1.0095]
LogP [1]: 4.53^[a]

Structure (SMILES): CCOC(=O)C(CO)NC(=O)c1sc(C#N)c(Br)c1Br (stereo not drawn) [1.0731]
LogP (method marked [a]): 2.62^[a]

Structure (SMILES): COC(=O)C(NC(=O)c1sc(Br)c(Br)c1F)c1cccs1 (racemic) [1.0953]
LogP [4]: 3.84^[a]

Structure (SMILES): N#CC1(NC(=O)c2sc(Br)c(Br)c2Cl)CCC(c2ccccc2)CC1 (stereo not drawn) [I.0870]
LogP [2]: 4.97^[a]

Structure (SMILES): CCC(C)C(NC(=O)c1sc(Br)c(Br)c1F)C(=O)O (stereo not drawn) [I.0235]
LogP [2]: 3.40^[a]

Structure (SMILES): CCOC(=O)CN(OC)C(=O)c1sc(C#N)c(Cl)c1Cl [1.0845]
LogP (method [a]): 3.06^[a]

Structure (SMILES): CCOC(=O)c1cc(Cl)c(C#N)s1 [II.072]
LogP [2]: 3.10^[a]

Structure (SMILES): N#CNC(=O)CNC(=O)c1sc(Br)c(Br)c1F [1.0563]
LogP (method [a]): 2.17^[a]

Results, then the compound that gave them:

LogP [1]: 3.19^[a]
Structure (SMILES): COC(=O)C1(NC(=O)c2sc(Br)c(Br)c2F)CSC1 [1.0047]

LogP [1]: 3.13^[a]
Structure (SMILES): CCOC(=O)C1(NC(=O)c2sc(Br)c(Br)c2F)CCOCC1 [1.0011]

LogP (method marked [a]): 2.08^[a]
Structure (SMILES): NC(=O)C1(NC(=O)c2sc(Cl)c(Cl)c2Br)CC1 [1.0786]

LogP [1]: 2.84^[a]
Structure (SMILES): CCOC(=O)C1(NC(=O)c2sc(Br)c(Cl)c2C)COC1 [1.0041]

LogP (method [a]): 2.20^[a]
Structure (SMILES): Cc1c(C(=O)NC2(C(=O)O)CC2)sc(Br)c1Cl [1.0168]

LogP (method [a]): 2.36^[a]
Structure (SMILES): N#CCNC(=O)c1sc(Cl)c(Br)c1F [1.0645]

LogP (method [a]): 2.12^[a]
Structure (SMILES): CCOC(=O)C(CO)NC(=O)c1sc(C#N)c(Cl)c1C (stereo not drawn) [1.0835]

LogP [3]: 3.96^[a]
Structure (SMILES): CCOC(=O)C(CCSC)NC(=O)c1sc(Br)c(Cl)c1F (stereo not drawn) [1.0432]

LogP [4]: 3.39^[a]
Structure (SMILES): Cc1c(C(=O)NC2(C(=O)OCc3ccccc3)CC2)sc(C#N)c1Br [1.0975]

LogP [3]: 3.38^[a]
Structure (SMILES): COC(=O)C(NC(=O)c1sc(Br)c(Cl)c1F)C1CC1 (stereo not drawn) [1.0427]

LogP (method [a]): 4.24^[a]
Structure (SMILES): CCOC(=O)C1(NC(=O)c2sc(Cl)c(Br)c2Br)CCC1 [1.0212]

LogP (method [a]): 4.78^[a]
Structure (SMILES): CC(C)(C)OC(=O)C1(NC(=O)c2sc(Br)c(Br)c2F)CCC1 [1.0925]

LogP (method [a]): 2.93^[a]
Structure (SMILES): COC(=O)C(NC(=O)c1sc(Cl)c(Br)c1C#N)C1CC1 (stereo not drawn) [1.0610]

LogP [2]: 4.02^[a]
Structure (SMILES): CCOC(=O)c1sc(F)c(Br)c1Cl [II.066]

LogP (method marked [a]): 3.70^[a]
Structure (SMILES): CCOC(=O)C1(NC(=O)c2cc(Br)c(C(F)(F)F)s2)CCC1 [1.0723]

LogP [3]: 4.64^[a]
Structure (SMILES): CCOC(=O)C(CC(C)C)NC(=O)c1sc(Br)c(Cl)c1F (stereo not drawn) [1.0431]

LogP (method [a]): 4.15^[a]
Structure (SMILES): O=C(NC1(C(=O)OC2CCC2)CC1)c1sc(Cl)c(Br)c1Cl [1.0597]

chromatographic logP (reversed phase HPLC columns, value in preparation example, method not marked): 2.57
Structure (SMILES): O=C(NC1(C(=O)O)CCC1)c1sc(Br)c(Br)c1F [I.0172, 1-{[(4,5-dibromo-3-fluoro-2-thienyl)carbonyl]amino}cyclobutanecarboxylic acid]

LogP (method [a]): 3.47^[a]
Structure (SMILES): CCOC(=O)CCNC(=O)c1sc(Br)c(Cl)c1Cl [1.0196]

LogP [1]: 3.17^[a]
Structure (SMILES): CCOC(=O)CCNC(=O)c1sc(I)c(Br)c1C [1.0097]

LogP [3]: 3.14^[a]
Structure (SMILES): CCOC(=O)C1(NC(=O)c2sc(C(F)F)c(Br)c2Br)CC1 [1.0522]

LogP [1]: 3.15^[a]
Structure (SMILES): CCOC(=O)C1(NC(=O)c2sc(Cl)c(Br)c2C)CCOCC1 [1.0018]

LogP (method [a]): 4.47^[a]
Structure (SMILES): CCOC(=O)[C@H](NC(=O)c1sc(Br)c(Br)c1F)C(C)C [1.0152]

LogP (method [a]): 4.97^[a]
Structure (SMILES): O=C(NC1(C(=O)OC2CCC2)CCC1)c1sc(Br)c(Br)c1Cl [1.0908]

LogP [1]: 3.71^[a]
Structure (SMILES): CCOC(=O)C1(NC(=O)c2sc(Cl)c(Br)c2C)CCC1 [1.0066]

LogP (method [a]): 5.19^[a]
Structure (SMILES): CCOC(=O)C(CC(C)C)NC(=O)c1sc(Br)c(Br)c1Cl (stereo not drawn) [1.0147]

LogP [2]: 5.00^[a]
Structure (SMILES): CCOC(=O)c1sc(Cl)c(Br)c1C [II.032]

LogP (method [a]): 4.52^[a]
Structure (SMILES): COC(=O)C1(NC(=O)c2sc(Br)c(Br)c2Cl)CC(C)(C)C1 [1.0618]

LogP (method [a]): 3.78^[a]
Structure (SMILES): Cc1c(C(=O)NC2(C(=O)OC3CCC3)CC2)sc(Br)c1Cl [1.0651]

LogP [2]: 2.48^[a]
Structure (SMILES): Cc1c(C(=O)NC2CCOC2=O)sc(Cl)c1Br (stereo not drawn) [I.0820]

LogP (method [a]): 4.81^[a]
Structure (SMILES): O=C(NC1(C(=O)OCC2CC2)CCC1)c1sc(Br)c(Br)c1Cl [1.0887]

LogP [2]: 5.03^[a]
Structure (SMILES): CCOC(=O)c1sc(I)c(Br)c1C [II.030]

LogP [1]: 3.25^[a]
Structure (SMILES): CCOC(=O)C1(NC(=O)c2sc(Br)c(I)c2C)CC1 [1.0089]

LogP [1]: 5.03^[a]
Structure (SMILES): CCSC(=O)C(CC(C)C)NC(=O)c1sc(Cl)c(Br)c1C (racemic) [1.0020]

LogP [1]: 3.79^[a]
Structure (SMILES): CCOC(=O)C1(CNC(=O)c2sc(Cl)c(Br)c2C)CC1 [1.0033]

LogP (method [a]): 5.36^[a]
Structure (SMILES): CC(C)(C)OC(=O)C(NC(=O)c1sc(Br)c(Br)c1Cl)C1CC1 (stereo not drawn) [1.0884]

LogP [1]: 3.13^[a]
Structure (SMILES): CCOC(=O)C1(NC(=O)c2sc(Br)c(Cl)c2C)CC1 [1.0074]
